How the values were obtained:
Assay type in all cases: cell-based
[1] = tested on: NHEJ repair activity in 293T cells; experiment: NHEJ repair activity by CRISPR/Cas9-induced HPRT mutation with siRNA co-transfection, 6-TG selection and MTT cell viability; settings: CRISPR/Cas9, 3 μg siRNA co-transfected, versus negative control siRNA
Description: The inhibiting effect of DNA-PKcs siRNA on NHEJ was determined by using a CRISPR/Cas9 technology, and the specific steps comprise:
(1) a Cas9/gRNA plasmid was constructed for HPRT gene, and the specific steps are as described in the embodiment 2.
(2) the Cas9/gRNA plasmid and DNA-PKcs siRNA were co-transfected into 293T cells. The specific steps comprise: 293T cells were inoculated into a culture dish of 6 cm, and 3 μg Cas9/gRNA plasmid and 3 μg DNA-PKcs siRNA were co-transfected into the 293T cells by using Lipofectamine 3000 when cell density reached 70%, and a negative control siRNA was transfected for the negative control group. The gene sequence of DNA-PKcs siRNA was […] (SEQ ID NO:5).
(3) the cells were treated with 6-TG. The specific steps comprise: the cells were inoculated into a 96-well plate after the transfection is performed for 24 h, then the culture medium was replaced with a DMEM culture medium containing 30 μmol/L 6-TG after cell attachment, and the cells were continually cultured for 72 h.
(§1) (4) cell viability was determined by a MTT method. The specific steps comprise: a MTT solution was added after the treatment was completed, 2 h later, the formed blue formazan particles were dissolved with DMSO, and then the light absorption value of each well was determined at OD570 nm via a microplate reader. […]

[2] = tested on: NHEJ repair activity in 293T cells; experiment: NHEJ repair activity by CRISPR/Cas9-induced HPRT mutation, 6-TG selection and MTT cell viability (NU7441 treatment time)
Description: The time dependence of the inhibiting effect of 2.0 μmol/L NU7441 on NHEJ was determined by using the CRISPR/Cas9 technology, specific steps were as follows:
(1) a Cas9/gRNA plasmid was constructed for HPRT gene. The specific steps comprise: a target site primer of HPRT was designed according to a gRNA design principle, wherein the forward primer is […] (SEQ ID NO:3), and the reverse primer is […] (SEQ ID NO:4). The primers were annealed to form a dimer, and the gRNA-sequence primer dimer was inserted into a Cas9/gRNA plasmid according to the method indicated on the CRISPR/Cas9 construction kit. Competent E. coli cells were transformed with the plasmid, spread on an ampicillin-resistant plate. 3-5 clones were selected and cultured in a shaker, plasmids were extracted and sequenced, and the obtained sequences were compared with the designed recognition sequences, ensuring the Cas9/gRNA plasmids with correct sequences were obtained.
(2) the Cas9/gRNA plasmids were transfected into 293T cells. […]
as §1, with “(5)” for “(4)”

[3] = tested on: NHEJ repair activity in 293T cells; experiment: NHEJ repair activity by TALEN-induced HPRT mutation, 6-TG selection and MTT cell viability; settings: for inhibition rate of NHEJ repair activity: then 30 μmol/L 6-TG 72 h
Description: The inhibiting effects of different concentrations of NU7441 on NHEJ are determined by using the TALEN technology, and the specific steps are as follows:
(1) a TALEN plasmid for HPRT gene was constructed. The specific steps comprise: a left-arm recognition sequence ATGACCTTGATTTA (SEQ ID NO:1) and a right-arm recognition sequence CCAAATCCTCAGCA (SEQ ID NO:2) of the target HPRT gene were designed according to the TALEN design principle, and the two recognition sequences were inserted into a corresponding backbone carrier according to the method indicated on the TALEN construction kit. Competent E. coli cells were transformed with the carrier, uniformly spread on a kanamycin-resistant (20 μg/ml) plate and cultured in an incubator at 37° C. for 12-16 h, then 3-5 clones were selected and inoculated in 5 ml LB culture solution (containing 20 μg/ml kanamycin), and cultured in a shaker at 250 rpm under 37° C. for 16 h, plasmids were extracted and sequenced, and the obtained sequences were compared with the designed recognition sequences, ensuring the left-arm and right-arm TALEN plasmids with correct sequences were obtained.
(2) the left-arm and right-arm TALEN plasmids were transfected into 293T cells. The specific steps comprise: 293T cells were inoculated into a culture dish of 6 cm, and 4 μg left-arm plasmids and 4 μg right-arm plasmids were transfected into the 293T cells by using Lipofectamine 3000 when cell density reached 70%.
(3) the 293T cells were treated with different concentrations of the inhibitor NU7441. […]
as §1, with “(5)” for “(4)”

## DNA-PKcs siRNA: siRNA of the NHEJ repair molecule DNA-PKcs, sequence UUCUCCGAACGUGUCACGUTT (SEQ ID NO:5), synthesized by GenePharma (chemistry not given here)
[1]
  repair activity of NHEJ: inhibited significantly

## O=c1cc(N2CCOCC2)oc2c(-c3cccc4c3sc3ccccc34)cccc12 [NU7441]
[2]; CRISPR/Cas9, 2.0 μmol/L for 1 h, then 30 μmol/L 6-TG 72 h
  inhibition rate of NHEJ repair activity: about 50%
[2]; CRISPR/Cas9, 2.0 μmol/L, treatment longer than 1 h (2 and 4 h)
  inhibiting effect on NHEJ activity: reduced over time
[3]; 0.5 μmol/L for 4 h
  inhibition rate of NHEJ repair activity: about 50%
[3]; 1.0 μmol/L for 4 h
  inhibition rate of NHEJ repair activity: about 50%
[3]; concentration increased to 2.0 μmol/L, 4 h (compared with 0.5, 1.0 μmol/L)
  inhibiting effect on NHEJ repair activity: the inhibiting effect was reduced

— US9863933B2, “Method for determining the repair activity of non-homologous end joining” (Soochow University, priority 2015, dated 2018)
